Laboratory results: patent US20250346550A1, “METHODS OF MODULATING ENDONUCLEASE G USING RESVERATROL AND ITS DERIVATIVES” (THE REGENTS OF THE UNIVERSITY OF COLORADO A BODY CORPORATE, priority 2022, published 2025)
“Also recorded” adds a separate entry of the source.

What was measured:
[1] = tested on: paternal mitochondrial elimination (PME) in C. elegans wild-type (N2) cross-fertilized embryos; test: PME fluorescent microscopy assay (MTR-stained paternal mitochondrial clusters), N2 males x N2 hermaphrodites; type: in vivo; details: for effect on PME when males were treated: 50 μM pretreatment of males before mating (FIG. 3a, b); for dynamics of PME at different embryonic stages: 50 μM vs 0.25% ethanol mock (FIG. 1g, FIG. 12); for effect on PME: 64-cell embryos (FIG. 1b, d); for effect on PME of the UV-irradiated solution: compound irradiated with UV for 4 hours, 64-cell embryos (FIG. 1e, f); for concentration sufficient to significantly affect PME / concentration showing maximal PME activity: dose series (FIG. 7a, b); for concentration sufficient to significantly affect PME: cis: inhibition, 64-cell, trans: enhancement, 16-cell; for concentration showing maximal PME activity: cis: inhibitory, trans: enhancing
Description: FIG. 1. […] The numbers of MTR-stained paternal mitochondrial clusters in 64-cell cross-fertilized embryos from mating of MTR-stained N2 males with N2 hermaphrodites in the presence of the indicated compounds (100 μM) were scored. n≥15 embryos for each compound. b, d-g, Quantification of MTR-stained paternal mitochondrial clusters in 64-cell stage embryos (b, d-f) or in embryos at the indicated stage (g) from the cross between MTR-stained N2 males and N2 hermaphrodites, in the presence of 0.25% ethanol (Mock) or 50 μM of the indicated compound. In each experiment, n>40 embryos (b,d,e), n=20 embryos (f), and n≥10 embryos (g) were scored, respectively. […] Data are mean±s.e.m. **P<0.01, ***P<0.001; n.s., not significant, two-sided, unpaired t-test.
FIG. 7. Effects of different dosages of resveratrol isomers on PME. a, b, The effects of different dosages of cis-resveratrol (a) and trans-resveratrol (b) on PME. The numbers of MTR-stained paternal mitochondrial clusters in 64-cell embryos (a) or 16-cell embryos (b) from mating of MTR-stained N2 males with N2 hermaphrodites in the presence of the indicated concentrations of resveratrol isomers were scored. […] N2 hermaphrodites and MTR-stained uaDf5/+ males were mated as indicated in the presence of 0.25% ethanol (Mock, d), 50 μM trans-resveratrol (e), or 50 μM cis-resveratrol (f). Males also carried smIs42, an integrated Psur-5sur-5::gfp transgene, which directs GFP expression in all somatic cells in most developmental stages, and was used to track cross progeny. A single cross-fertilized embryo or larva (MTR- or GFP-positive) at the indicated stage was analyzed by PCR. uaDf5/+ and N2 hermaphrodites were controls.
FIG. 12. […] Quantification of MTR-stained paternal mitochondrial clusters at the indicated embryonic stages from the cross between MTR-stained N2 males and N2 hermaphrodites, in the presence of 0.25% ethanol (Mock) or 50 μM of the indicated compound. In each experiment, n≥10 embryos embryos. Data are mean±s.e.m. **P<0.01, ***P<0.001; n.s., not significant, two-sided, unpaired t-test.
Following fertilization, paternal mitochondria are rapidly depolarized and damaged in fertilized eggs, which could generate and release reactive oxygen species (ROS) that affect PME and embryo development. We thus screened twelve small molecules derived from natural products that have been used as antioxidants for the potential activity in modulating PME (FIG. 6a), using a fluorescent microscopy assay. In this assay, C. elegans wild-type (N2) males prestained with Mitotracker Red (MTR), a mitochondrion-specific fluorescent dye, were mated with unstained N2 hermaphrodites in the presence of the compound of interest ([…]) and the cross-fertilized embryos were examined for the presence of MTR-stained paternal mitochondria or mitochondrial clusters.

CPS-6 = target: T1, CPS-6 (Caenorhabditis elegans, UniProt Q95NM6); test: plasmid DNA cleavage assay; type: biochemical, C. elegans; details: 20 μM; for effect on CPS-6 nuclease activity: 10 ng CPS-6, pPD49.78 plasmid DNA
T1 construct: Recombinant CPS-6 protein was incubated with the supercoiled plasmid DNA substrate
T1 sequence (Q95NM6 1-308): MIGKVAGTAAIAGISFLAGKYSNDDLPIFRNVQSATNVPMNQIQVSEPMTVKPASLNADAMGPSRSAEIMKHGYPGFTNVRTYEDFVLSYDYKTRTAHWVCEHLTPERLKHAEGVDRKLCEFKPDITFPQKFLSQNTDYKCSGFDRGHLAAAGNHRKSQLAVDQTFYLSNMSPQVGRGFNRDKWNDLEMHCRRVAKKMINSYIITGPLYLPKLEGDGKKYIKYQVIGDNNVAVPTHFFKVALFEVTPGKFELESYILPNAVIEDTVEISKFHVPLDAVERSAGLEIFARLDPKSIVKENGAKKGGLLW
Description: FIG. 3. Resveratrol isomers target CPS-6 to affect PME. a, b, Both cis-resveratrol and trans-resveratrol act paternally to affect PME. The numbers of MTR-stained paternal mitochondrial clusters in embryos at 64-cell (a) or 16-cell (b) stage from the indicated crosses were scored. N2 males or hermaphrodites were pretreated with 0.25% ethanol (Mock), 50 μM cis-resveratrol (a), or 50 μM trans-resveratrol (b) as indicated before mating. c-g, Quantification of MTR-stained paternal mitochondrial clusters in 64-cell embryos from the indicated crosses treated with 0.25% ethanol (Mock), 50 μM cis-resveratrol, and 50 μM trans-resveratrol, respectively. Alleles used are lgg-1(bp523), cps-6(tm3222) and rad-23(tm2595). Data are mean s.e.m; n≥15 embryos (a) and n≥20 embryos (b, c-g) were scored in each experiment. ***P<0.001; n.s., not significant, two-sided, unpaired t-test. h, Resveratrol isomers enhance or inhibit the nuclease activity of CPS-6 in a plasmid DNA cleavage assay. 10 ng of CPS-6 were incubated with 0.25% ethanol (Mock), 20 μM cis-resveratrol, or 20 μM trans-resveratrol in dark at 4° C. for 1.5 hours, before 1 μg of the pPD49.78 plasmid DNA were added to the reactions. After further incubation at 30° C. for 1 hour, the reactions were resolved on a 1% agarose gel. Three different forms of plasmid DNA are indicated.
FIG. 11. Stabilized trans-resveratrol enhances the nuclease activity of CPS-6 in a plasmid DNA cleavage assay and is resistant to UV irradiation. 10 ng of CPS-6 were incubated with 0.25% ethanol (Mock), 20 μM locked trans-resveratrol with or without UV irradiation, 20 μM trans-resveratrol with or without UV irradiation, and 20 μM cis-resveratrol with or without UV irradiation, respectively, in dark at 4° C. for 1.5 hours, before 1 μg of the pPD49.78 plasmid DNA were added to the reactions. After further incubation at 30° C. for 1 hour, the reactions were resolved on a 1% agarose gel. Three different forms of plasmid DNA are indicated. Resveratrol isomers or derivative were subjected to UV irradiation for 3 hours.
Because resveratrol is an antioxidant and the endonuclease activity of CPS-6 is regulated by redox conditions both in vitro and in vivo, we investigated the possibility that resveratrol isomers could directly affect the nuclease activity of CPS-6 using a plasmid DNA cleavage assay. Recombinant CPS-6 protein was incubated with the supercoiled plasmid DNA substrate in the presence or absence of 20 μM trans-resveratrol or cis-resveratrol and the reactions were resolved by an agarose gel. […] Since the nuclease activity of CPS-6 is required for PME, these in vitro results are consistent with the in vivo observations that trans-resveratrol enhances and cis-resveratrol inhibits PME.

| Compound | effect on PME when males were treated [1] | dynamics of PME at different embryonic stages [1] | effect on PME ([1]; 50 μM) | effect on PME of the UV-irradiated solution ([1]; 50 μM) | concentration sufficient to significantly affect PME [1] | concentration showing maximal PME activity [1] | effect on CPS-6 nuclease activity (CPS-6) | effect on CPS-6 nuclease activity after UV irradiation of the compound (CPS-6; compound UV irradiated for 3 hours (FIG. 11)) | effect on PME when only hermaphrodites were treated ([1]; 50 μM, males mock treated (FIG. 3a)) | average paternal mitochondrial clusters in 64-cell embryos ([1]; freshly prepared, 50 μM (FIG. 1d)) |
| --- | --- | --- | --- | --- | --- | --- | --- | --- | --- | --- |
| Oc1ccc(/C=C/c2cc(O)cc(O)c2)cc1 [trans-resveratrol, 3,5,4′-trihydroxy-trans-stilbene] | only acted through males to enhance PME | accelerated elimination of paternal mitochondria; also recorded: identical activity in promoting PME | did not inhibit PME | acquired the activity to inhibit PME | 25 µM | 50 µM | enhances the endonuclease activity of CPS-6 | lost its activity to enhance the nuclease activity of CPS-6 |  |  |
| Oc1ccc(/C=C\c2cc(O)cc(O)c2)cc1 [cis-resveratrol] | PME was suppressed | blocked rapid elimination of paternal mitochondria | inhibited PME better than the aged trans-resveratrol | reduced PME inhibitory activity | 1 µM | 50 µM | inhibits CPS-6 nuclease activity |  | PME proceeded normally | 16 clusters |
